Experimental data taken from patent publication US10669284B2, “Fused thiazolopyrimidine derivatives as MNKS inhibitors” (LIFEARC, priority 2015, dated 2020).

Tests used:
Full-length human MNK2 = biological target: T1, Full-length human MNK2 (Homo sapiens, UniProt Q9HBH9, T379D); test: MNK2 biochemical IC50 assay (Caliper Mobility Shift Assay); settings: read-out: P(IC50) MNK2 (converted)
T1 construct: GST (N); purchased Carna Biosciences 02-146; host or cells: baculovirus expression system

[1] = tested on: phosphorylation of eIF4E at ser209 in MV4.11 cell line; test: MNK cellular activity phospho-eIF4E detection assay (Alphascreen Surefire); assay type: cell-based; settings: Homo sapiens; MV4.11 cell line, phospho-eIF4E (ser209) Alphascreen Surefire; read-out: P(IC50) elF4E (converted)
Procedure, shortened: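 AlphaScreen SureFire sandwich-immunoassay readout of phospho-eIF4E Ser209 in lysed MV4.11 cells; acceptor then donor beads, each 1.5 hr at room temperature. Signal normalised to untreated DMSO-only controls; duplicate curves, values averaged over at least 2 independent experiments.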

Full-length human MNK1 = biological target: T2, Full-length human MNK1 (Homo sapiens, UniProt Q9BUB5, T385D); test: MNK1 biochemical IC50 assay (Caliper Mobility Shift Assay); settings: read-out: P(IC50) MNK1 (converted)
T2 construct: GST (N); purchased Carna Biosciences 02-145; host or cells: baculovirus expression system
T2 sequence (Q9BUB5 1-424 isoform Q9BUB5-2 T344D): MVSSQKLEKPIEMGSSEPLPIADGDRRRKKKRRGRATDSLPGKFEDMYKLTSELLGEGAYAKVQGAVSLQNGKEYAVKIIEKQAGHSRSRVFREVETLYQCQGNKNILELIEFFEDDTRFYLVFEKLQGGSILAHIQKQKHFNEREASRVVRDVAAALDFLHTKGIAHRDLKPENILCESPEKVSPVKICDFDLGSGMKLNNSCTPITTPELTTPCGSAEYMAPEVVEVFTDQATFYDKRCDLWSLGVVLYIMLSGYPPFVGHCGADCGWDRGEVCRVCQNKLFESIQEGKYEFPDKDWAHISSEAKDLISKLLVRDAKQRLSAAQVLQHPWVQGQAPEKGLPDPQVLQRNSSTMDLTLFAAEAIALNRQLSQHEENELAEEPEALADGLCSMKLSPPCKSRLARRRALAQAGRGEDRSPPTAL

T1 sequence (Q9HBH9 whole entry T379D): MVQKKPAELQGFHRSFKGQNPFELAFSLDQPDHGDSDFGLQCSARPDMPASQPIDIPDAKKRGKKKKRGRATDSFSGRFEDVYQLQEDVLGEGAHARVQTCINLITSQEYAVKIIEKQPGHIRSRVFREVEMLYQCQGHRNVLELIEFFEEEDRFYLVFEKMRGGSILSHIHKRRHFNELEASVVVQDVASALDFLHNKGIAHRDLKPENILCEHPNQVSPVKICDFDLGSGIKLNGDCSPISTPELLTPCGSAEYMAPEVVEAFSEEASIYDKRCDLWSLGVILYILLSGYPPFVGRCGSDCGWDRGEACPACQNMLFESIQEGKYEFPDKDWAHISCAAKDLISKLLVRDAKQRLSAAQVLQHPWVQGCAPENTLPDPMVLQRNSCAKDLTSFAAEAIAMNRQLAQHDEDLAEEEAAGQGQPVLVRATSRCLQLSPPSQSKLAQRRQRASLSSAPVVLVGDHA

| IC50 (Full-length human MNK2) | IC50 [1] | IC50 (Full-length human MNK1) | SMILES |
| --- | --- | --- | --- |
| 5.01 nM | 50.1 nM | 3.98 nM | O=C(Nc1nc2c(N3CCc4cc(F)ccc43)ncnc2s1)C1CCOC1 (stereo not drawn) [Example 84, N-(7-(5-Fluoroindolin-1-yl)thiazolo[5,4-d]pyrimidin-2-yl)tetrahydrofuran-3-carboxamide] |
| 79.4 nM | 251 nM | 63.1 nM | CN(C)CCNc1nc2c(N3CCc4cc(F)ccc43)ncnc2s1 [Example 86] |
| 25.1 nM | 79.4 nM | 63.1 nM | Cc1ccc2c(c1)CCN2c1ncnc2sc(C(=O)NCC3CCNCC3)nc12 [Example 170, 7-(5-Methylindolin-1-yl)-N-(4-piperidylmethyl)thiazolo[5,4-d]pyrimidine-2-carboxamide] |
| 39.8 nM | 50.1 nM | 79.4 nM | C[C@H]1Cc2ccccc2N1c1ncnc2sc(C(=O)NC3CCOCC3)nc12 [Example 133, 7-[(2S)-2-methylindolin-1-yl]-N-tetrahydropyran-4-yl-thiazolo[5,4-d]pyrimidine-2-carboxamide] |
| 100 nM | 31.6 nM | 100 nM | O=C(NC1CCOCC1)c1nc2c(N3CC(CCN4CCOCC4)c4cc(F)ccc43)ncnc2s1 (stereo not drawn) [Example 151, 7-[5-fluoro-3-(2-morpholinoethyl)indolin-1-yl]-N-tetrahydropyran-4-yl-thiazolo[5,4-d]pyrimidine-2-carboxamide] |
| 79.4 nM | 200 nM | 126 nM | Fc1ccc2c(c1)CCN2c1ncnc2sc(N3CCOCC3)nc12 [Example 87, 4-[7-(5-fluoroindolin-1-yl)thiazolo[5,4-d]pyrimidin-2-yl]morpholine] |
| 7.94 nM | 31.6 nM | 7.94 nM | O=C(NCC1CCNCC1)c1nc2c(N3CCc4cc(Br)ccc43)ncnc2s1 [Example 169, 7-(5-Bromoindolin-1-yl)-N-(4-piperidylmethyl)thiazolo[5,4-d]pyrimidine-2-carboxamide] |
| 20 nM | 31.6 nM | 25.1 nM | CC1Cc2ccccc2N1c1ncnc2sc(C(=O)NCCCN(C)C)nc12 (stereo not drawn) [Example 124] |
| 15.8 nM | 126 nM | 31.6 nM | CNCCC1CN(c2ncnc3sc(C(=O)NC4CCOCC4)nc23)c2ccccc21 (stereo not drawn) [Example 115, 7-[3-[2-(Methylamino)ethyl]indolin-1-yl]-N-tetrahydropyran-4-yl-thiazolo[5,4-d]pyrimidine-2-carboxamide] |
| 158 nM | 251 nM | 200 nM | CN1CCC(CNC(=O)c2nc3c(N4CCc5cccc(F)c54)ncnc3s2)CC1 [Example 93, 7-(7-fluoroindolin-1-yl)-N-[(1-methyl-4-piperidyl)methyl]thiazolo [5,4-d]pyrimidine-2-carboxamide] |
| 15.8 nM | 20 nM | 25.1 nM | CC1Cc2ccccc2N1c1ncnc2sc(C(=O)NC3CCN(C)CC3)nc12 (stereo not drawn) [Example 123, 7-(2-Methylindolin-1-yl)-N-(1-methyl-4-piperidyl)thiazolo[5,4-d]pyrimidine-2-carboxamide] |
| 10 nM | 15.8 nM | 7.94 nM | CNCCC1CN(c2ncnc3sc(C(=O)NC4CCOCC4)nc23)c2ccc(F)cc21 (stereo not drawn) [Example 147, 7-[5-fluoro-3-[2-(methyl-amino)ethyl]indolin-1-yl]-N-tetrahydropyran-4-yl-thiazolo[5,4-d]pyrimidine-2-carboxamide] |
| 158 nM | 251 nM | 126 nM | CNCCC1(C)CN(c2ncnc3sc(C(=O)NC4CCOCC4)nc23)c2ccccc21 (stereo not drawn) [Example 118, 7-[3-Methyl-3-[2-(methylamino)ethyl]indolin-1-yl]-N-tetrahydropyran-4-yl-thiazolo[5,4-d]pyrimidine-2-carboxamide] |
| 6.31 nM | 39.8 nM | 6.31 nM | CC1(CO)CN(c2ncnc3sc(C(=O)NCC4CCNCC4)nc23)c2ccccc21 (stereo not drawn) [Example 140] |
| 7.94 nM | 5.01 nM | 10 nM | CNC(=O)c1nc2c(N3CC(C)c4ccccc43)ncnc2s1 (stereo not drawn) [Example 156, N-methyl-7-(3-methylindolin-1-yl)thiazolo[5,4-d]pyrimidine-2-carboxamide] |
| 10 nM | 15.8 nM | 10 nM | CC(C)CCNC(=O)c1nc2c(N3CC(CCN)c4ccccc43)ncnc2s1 (stereo not drawn) [Example 165, 7-[3-(2-aminoethyl)indolin-1-yl]-N-isopentyl-thiazolo[5,4-d]pyrimidine-2-carboxamide] |
| 15.8 nM | 10 nM | 15.8 nM | CC(C)(O)CC1CN(c2ncnc3sc(C(=O)NCC4CCNCC4)nc23)c2ccccc21 (stereo not drawn) [Example 142] |
| 5.01 nM | 7.94 nM | 6.31 nM | CC1(C)CN(c2ncnc3sc(C(=O)NC4CCNCC4)nc23)c2ccccc21 [Example 162] |

Further lines, the compound ahead of its results:

| SMILES | IC50 (Full-length human MNK2) | IC50 [1] | IC50 (Full-length human MNK1) |
| --- | --- | --- | --- |
| O=C(NC1CCOCC1)c1nc2c(N3CC4(CCCC4)c4ccccc43)ncnc2s1 [Example 41, 7-(Spiro[cyclopentane-1,3′-indol]-1′(2′H)-yl)-N-(tetrahydro-2H-pyran-4-yl)[1,3]thiazolo[5,4-d]pyrimidine-2-carboxamide] | 12.6 nM | 20 nM | 25.1 nM |
| CC(C)Oc1cc(F)ccc1Nc1ncnc2sc(C(=O)NC3CCS(=O)(=O)CC3)nc12 [Example 34, N-(1,1-dioxidotetrahydro-2H-thiopyran-4-yl)-7-{[4-fluoro-2-(propan-2-yloxy)phenyl]amino}[1,3]thiazolo[5,4-d]pyrimidine-2-carboxamide] | 158 nM | 79.4 nM | 200 nM |
| O=C(NC1CCNCC1)c1nc2c(N3CCc4cc(F)ccc43)ncnc2s1 [Example 78, 7-(5-fluoroindolin-1-yl)-N-(4-piperidyl)thiazolo[5,4-d]pyrimidine-2-carboxamide] | 2 nM | 3.16 nM | 2 nM |
| O=C(NCCCn1cccn1)c1nc2c(N3CCc4cc(F)ccc43)ncnc2s1 [Example 75, 7-(5-fluoroindolin-1-yl)-N-(3-pyrazol-1-ylpropyl)thiazolo[5,4-d]pyrimidine-2-carboxamide] | 3.16 nM | 15.8 nM | 3.16 nM |
| CC(C)Oc1cc(F)ccc1Nc1ncnc2sc(C(=O)NCC3CCN(C)CC3)nc12 [Example 36, 7-{[4-fluoro-2-(propan-2-yloxy)phenyl]amino}-N-[(1-methylpiperidin-4-yl)methyl][1,3]thiazolo[5,4-d]pyrimidine-2-carboxamide] | 50.1 nM | 50.1 nM | 50.1 nM |
| CC(C)Oc1cc(F)ccc1Nc1ncnc2sc(C(=O)NC3CCN(C)CC3)nc12 [Example 32, 7-{[4-fluoro-2-(propan-2-yloxy)phenyl]amino}-N-(1-methylpiperidin-4-yl)[1,3]thiazolo[5,4-d]pyrimidine-2-carboxamide] | 39.8 nM | 39.8 nM | 50.1 nM |
| CNCCCNC(=O)c1nc2c(Nc3ccc(F)cc3OC(C)C)ncnc2s1 [Example 29, 7-{[4-Fluoro-2-(propan-2-yloxy)phenyl]amino}-N-[3-(methylamino)propyl][1,3]thiazolo[5,4-d]pyrimidine-2-carboxamide] | 50.1 nM | 39.8 nM | 63.1 nM |
| CN(C)C(=O)c1nc2c(N3CCc4cc(F)ccc43)ncnc2s1 [Example 70, 7-(5-fluoroindolin-1-yl)-N,N-dimethyl-thiazolo[5,4-d]pyrimidine-2-carboxamide] | 20 nM | 63.1 nM | 50.1 nM |
| CN1CCC(NC(=O)c2nc3c(N4CCc5cc([N+](=O)[O-])ccc54)ncnc3s2)CC1 [Example 45, N-(1-methylpiperidin-4-yl)-7-(5-nitro-2,3-dihydro-1H-indol-1-yl)[1,3]thiazolo[5,4-d]pyrimidine-2-carboxamide] | 20 nM | 31.6 nM | 15.8 nM |
| CC(C)Oc1ccccc1Nc1ncnc2sc(C(=O)NCCCN(C)C)nc12 [Example 23, N-[3-(Dimethylamino)propyl]-7-(2-isopropoxyanilino)thiazolo[5,4-d]pyrimidine-2-carboxamide] | 63.1 nM | 63.1 nM | 100 nM |
| CO[C@H]1CCC[C@@H](Oc2cc(F)ccc2Nc2ncnc3sc(C(=O)NCC4CCNCC4)nc23)C1 [Example 60, 7-[4-fluoro-2-[(1R,3S)-3-methoxycyclohexoxy]anilino]-N-(4-piperidylmethyl)thiazolo[5,4-d]pyrimidine-2-carboxamide] | 1000 nM | 631 nM | 794 nM |
| CC(C)Oc1cc(F)ccc1Nc1ncnc2sc(C(=O)NC3CC4CCC(C3)N4C(=O)OC(C)(C)C)nc12 (stereo not drawn) [Example 6, tert-butyl 3-[[7-(4-fluoro-2-isopropoxy-anilino)thiazolo[5,4-d]pyrimidine-2-carbonyl]amino]-8-azabicyclo[3.2.1]octane-8-carboxylate] | 398 nM | 251 nM | 794 nM |
| CC(C)(O)c1nc2c(N3CCc4cc(F)ccc43)ncnc2s1 [Example 82, 2-[7-(5-Fluoroindolin-1-yl)thiazolo[5,4-d]pyrimidin-2-yl]propan-2-ol] | 31.6 nM | 158 nM | 31.6 nM |
| CN(C)CCCNC(=O)c1nc2c(Nc3ccc(F)cc3O[C@H]3CCCOC3)ncnc2s1 [Example 17, N-[3-(dimethylamino)propyl]-7-[4-fluoro-2-[(3S)-tetrahydropyran-3-yl]oxy-anilino]thiazolo[5,4-d]pyrimidine-2-carboxamide] | 100 nM | 100 nM | 126 nM |
